# Experimental data as given in patent US20170105999A1, “METHOD FOR TREATING DRUG RESISTANT CANCER” (NATIONAL YANG MING UNIVERSITY, priority 2014, published 2017).
# What was measured:
# [1] = tested on: NSCLC cell lines; conditions: conclusion in words
# Protocol: (§1) Cells were plated in 96-well plates at a density of 2000 cells per well in triplicate. The cells were treated on the third day (to ensure proper plating efficiency and vitality) to indicated agents for 48 hrs. […] Cytotoxicity was assessed using the sulforhodamine B (SRB) assay (23). Briefly, the medium was discarded, and the adherent cells were fixed by 100 μl of cold 10% trichioroacetic acid (w/v) in each well for 1 h at 4° C. After fixation, cells were stained with 100 μl/well of 0.4% (w/v, in 1% acetic acid) SRB solution for 30 min at room temperature, and then washed 5 times with 1% acetic acid. After air-drying, 100 μl of 10 mM Tris base was added to each well and the absorbance was read at 530 nm. Cytotoxicity is expressed as the percent of cells in drug treated wells relative to number of cells in the solvent only control (set to 100%). Each experiment was performed independently at least 2 times in triplicate and cytotoxicity is given as means ±SD.
# (§2) A549, A549-ON, CL97, CL141, HCC827, and H441 were lung adenocarcinoma cell lines. CL152, H2170, and H226 were squamous cell carcinoma cell lines. Cell viability was determined by SRB assay. […] To determine whether side population (SP) cells, which represent a cell population with CSC characteristics, exist in NSCLC cell lines, we stained the cells with the fluorescent dye, Hoechst 33342, and analyzed the cells with flow cytometry.
# [2] = tested on: HT29; assay: Tumor spheroid (sphere formation) assay; assay type: cell-based; conditions: HT29, colorectal adenocarcinoma
# [3] = tested on: CL97; assay: Tumor spheroid (sphere formation) assay; assay type: cell-based
# [4] = tested on: NSCLC cells; assay: Side population analysis in NSCLC cells; assay type: cell-based; conditions: 48 hours of incubation at 2.5, 5 and 10 μM
# Protocol: Single-cell suspensions of cells were detached from dishes with Trypsin-EDTA (Invitrogen) and suspended at 1×10^6 cells/mL in Hank's balanced salt solution ([…]) supplemented with 3% fetal calf serum and 10 mM Hepes. These cells were then incubated at 37° C. for 90 minutes with 20 μg/mL Hoechst 33342 (Sigma Chemical, St. Louis, Mo.). […] After 90 minutes incubation with indicated drugs, the cells were centrifuged immediately for 5 minutes at 300 g and 4° C. and resuspended in ice-cold HBSS, The cells were kept on ice to inhibit efflux of the Hoechst dye, and 1 μg/mL propidium iodide (PI, BD) were added to discriminate dead cells. Finally, these cells were filtered through a 40 μm cell strainer (BD) to obtain single-suspension cells. Cell dual-wavelength analysis and purification were performed on a dual-laser FACS Vantage SE (BD). Hoechst 33342 can be excited at 355 nm UV light and emitted blue fluorescence with a 450/20 band-pass (BP) filter and red fluorescence with a 675 nm edge filter long-pass (EFLP). […]
# as §2, with “CL152, H2170, and H226 were squamous cell carcinoma cell lines.” left out
# [5] = tested on: NSCLC cell lines; assay: Clonogenic assay in NSCLC cell lines; assay type: cell-based; conditions: different concentration of prochlorperazine
# Protocol: Tested cells were seeded respectively in 6 well plates with 10^4 cells per well for 14 days. […] After removing the crystal violet carefully and rinse with tap water, the colonies were counted manually.
# as §2
# [6] = tested on: CL152; assay: Cytotoxicity, sulforhodamine B (SRB) assay; assay type: cell-based; conditions: read-out: IC50 for prochlorperazine metabolites, CL152 parental cells
# Protocol: as §1, §2
# [7] = tested on: CL141; assay: Cytotoxicity, sulforhodamine B (SRB) assay; assay type: cell-based; conditions: read-out: IC50 for prochlorperazine metabolites, CL141 parental cells
# Protocol: as §1, §2
# [8] = tested on: MDA-MB-231; assay: Tumor spheroid (sphere formation) assay; assay type: cell-based; conditions: MDA-MB-231, breast cancer
# [9] = tested on: CL141; assay: Tumor spheroid (sphere formation) assay; assay type: cell-based
# [10] = tested on: CL152 spheres; assay: Apoptosis by flow cytometry; assay type: cell-based; conditions: 48 hours
# [11] = tested on: CL141 spheres; assay: Cytotoxicity at sphere cells, Trypan Blue Exclusion method; assay type: cell-based; conditions: read-out: IC50 for prochlorperazine metabolites
# [12] = tested on: lung adenocarcinoma with EGFR-L858R mutation; assay: Case study, lung adenocarcinoma patient; assay type: in vivo, human; conditions: person; prochlorperazine along with pemetrexed; last followed-up CT
# [13] = tested on: CL152; assay: CL152 (squamous) tumor-bearing NOD/SCID mice, standard regimen combination; assay type: in vivo
# [14] = tested on: A549 cells; assay: Senescence, β-galactosidase (SA-β-Gal) activity; assay type: cell-based; conditions: A549, 24 hours; 1 μM prochlorperazine, 50 μM resveratrol as positive control
# Text: EMT also plays a critical role in the regulation of cancer sternness. EMT is characterized by enhanced cell migration and invasion.
# [15] = tested on: CL152; assay: Aldefluor assay (ALDH-positive cell population)
# [16] = tested on: U87MG; assay: Tumor spheroid (sphere formation) assay; assay type: cell-based; conditions: brain cancer
# [17] = tested on: CL97; assay: Aldefluor assay (ALDH-positive cell population); assay type: cell-based; conditions: CL97, adenocarcinoma
# Protocol: (§3) Briefly, single cells obtained from cell cultures were incubated in an Aldefluor assay buffer containing an ALDH substrate (bodipy-aminoacetaldehyde, BAAA) for 50 minutes at 37° C.
# [18] = tested on: A549; assay: Aldefluor assay (ALDH-positive cell population); assay type: cell-based; conditions: A549, adenocarcinoma
# Protocol: as §3
# [19] = tested on: CL141; assay: Aldefluor assay (ALDH-positive cell population); assay type: cell-based; conditions: CL141, adenocarcinoma
# Protocol: as §3
# [20] = tested on: J5; assay: Tumor spheroid (sphere formation) assay; assay type: cell-based; conditions: J5, hepatocellular carcinoma
smiles,measurement,setting,value
CN1CCN(CCCN2c3ccccc3Sc3ccc(Cl)cc32)CC1 [prochlorperazine],cytotoxic effects in NSCLC cells,[1],low or minimal cytotoxic effects
same,Sphere formation,[2],0 to 2.5 µM
same,Sphere formation,"[3]; CL97, adenocarcinoma",0 to 2.5 µM
same,number of spheres,"[3]; CL97 sphere cells, 1, 2.5, 5 and 10 μM, 48 hours, concentration-dependent",reduced the number of spheres
same,"number of sphere cells, co-treatment","[3]; CL97 spheres, co-treatment with gefitinib vs gefitinib alone, 48 hours",significantly decreased the number of sphere cells
same,proportion of SP cells,[4],dose-dependently decease
same,Clonogenicity of NSCLC cell lines,[5],reduced in a concentration-dependent manner
same,IC50,[6],10 to 20 µM
same,IC50,[7],10 to 20 µM
same,Sphere formation,[8],5 to 10 µM
same,Sphere formation,"[9]; CL141, adenocarcinoma",0 to 2.5 µM
same,number of spheres,"[9]; CL141 sphere cells, 1, 2.5, 5 and 10 μM, 48 hours, concentration-dependent",reduced the number of spheres
same,"number of sphere cells, co-treatment","[9]; CL141 spheres, co-treatment with pemetrexed vs pemetrexed alone, 48 hours",significantly decreased the number of sphere cells
same,apoptosis,[10],dose-dependent increase in apoptosis
same,IC50,[11],< 5 µM
same,tumor and pleural effusion on CT,[12],reduced significantly
same,"tumor growth, prochlorperazine alone",[13]; 5 mg/kg,could inhibit tumor growth
same,"tumor growth, standard treatment combined with prochlorperazine",[13]; 60 mg/kg gemcitabine + 3 mg/kg cisplatin + 5 mg/kg prochlorperazine,more significantly inhibitory effect of tumor growth than other treatments
same,β-galactosidase activity (senescence),[14],increased β-galactosidase activity
same,ALDH^+ CL152 population,[15]; CL152,decreased the ALDH^+ CL152 population in a dose-dependent manner
same,ALDH^+ assay,"[15]; CL152, squamous cell carcinoma",<5 µM
same,Sphere formation,[16],10 to 15 µM
same,ALDH^+ assay,[17],<5 µM
same,ALDH^+ assay,[18],<5 µM
same,ALDH^+ assay,[19],<5 µM
same,Sphere formation,[20],>5 µM
